US20200333357A1, “NOVEL TFEB PATHWAY AGONISTS FOR METABOLIC DISEASES AND AGEING” (The Board of Regents of the University of Texas System, priority 2017, published 2020)

Test system: mice under fed and fast conditions
Assay: Short-term starvation and chloroquine-induced acute hepatic lipid accumulation in mice
Format: in vivo, mouse
Method: SFIGS. […] (SFIG. 6A) The body weight (left y-axis, solid symbols) and food intake (right y-axis, open symbols) measured in normal-diet-fed mice treated with vehicle or 2.5 mg/kg DG. (SFIG. 6B) Drug release curves of AD (upper panel) and IKA (lower panel) in PBS. […] (SFIG. 6F) Cells were treated with various doses DG, AD and IKA for 4 hours, and cell viability was measured immediately or after 72 hours. Dose response curves were simulated using ImageJ. (SFIG. 6G) H&E staining of heart, spleen and kidney sections from mice treated with DG, AD, IKA and their corresponding controls. Scale bar, 100 μm. (SFIG. 6H) H&E staining of liver and heart sections as well as ORO and p62/SQSTM1 IHC staining of liver sections from mice under fed and fast conditions with orally injected DG and intraperitoneally injected CQ, individually and jointly, or their corresponding control (Saline). Scale bar, 50 μm. (SFIG. 6I) The body weight of mice after the treatment described in SFIG. 6H. (SFIGS. 6J-L) Total serum levels of triglyceride, cholesterol and glucose of mice after the treatment described in SFIG. 6G.

SMILES: C[C@H]1O[C@@H](O[C@H]2[C@@H](O)C[C@H](O[C@H]3[C@@H](O)C[C@H](O[C@H]4CC[C@@]5(C)[C@H](CC[C@@H]6[C@@H]5C[C@@H](O)[C@]5(C)[C@@H](C7=CC(=O)OC7)CC[C@]65O)C4)O[C@@H]3C)O[C@@H]2C)C[C@H](O)[C@@H]1O [DG, digoxin, reference compound]
- p62/SQSTM1 accumulation in liver (fast, CQ, DG oral): reduction
- fast-induced hepatic lipid accumulation (overnight fast, CQ intraperitoneal, DG oral co-administration): improved
